Test results reported in patent publication US11572369B2, “Bicyclic pyridine compositions and methods of using the same for cancer therapy” (UNIVERSITY OF SOUTH CAROLINA, priority 2019, dated 2023).

Key:
Assay in all cases: KINOMEscan
Format in all cases: binding
Conditions in all cases: 2000 nM
[1] = target: ABL1(F317L)-nonphosphorylated (Homo sapiens, UniProt P00519, F317L)
[2] = target: ABL1(H396P)-nonphosphorylated (Homo sapiens, UniProt P00519, H396P)
[3] = target: ABL1(Y253F)-phosphorylated (Homo sapiens, UniProt P00519, Y253F)
BMPR1B = target: T1, BMPR1B (Homo sapiens, UniProt O00238)
T1 construct: DNA label (for qPCR read-out); purchased KINOMEscan scanMAX panel (DiscoveRx)

BTK = target: T2, BTK (Homo sapiens, UniProt Q06187)
T2 construct: DNA label (for qPCR read-out); purchased KINOMEscan scanMAX panel (DiscoveRx)

CDC2L1 = target: T3, CDC2L1 (Homo sapiens, UniProt P21127)
T3 construct: DNA label (qPCR read-out); purchased KINOMEscan (ScanMAX panel service)

CDK11 (CDK19) = target: T4, CDK11 (CDK19) (Homo sapiens, UniProt Q9BWU1)
T4 construct: purchased DiscoverX (KINOMEscan service)

DDR2 = target: T5, DDR2 (Homo sapiens, UniProt Q16832)
T5 construct: DNA label (qPCR read-out); purchased KINOMEscan (DiscoveRx) panel

DMPK2 = target: T6, DMPK2 (Homo sapiens, UniProt Q6DT37)
T6 construct: DNA label (qPCR read-out); purchased KINOMEscan (DiscoveRx) panel

[4] = target: T7, EGFR(L747-S752del, P753S) (Homo sapiens, UniProt P00533, DEL747-752/P753S)
T7 construct: purchased DiscoveRx (KINOMEscan scanMAX panel)

EPHA3 = target: T8, EPHA3 (Homo sapiens, UniProt P29320)
T8 construct: purchased DiscoveRx (KINOMEscan scanMAX panel)

GRK4 = target: T9, GRK4 (Homo sapiens, UniProt P32298)
T9 construct: DNA label (for qPCR read-out); purchased DiscoveRx (KINOMEscan scanMAX panel, contract assay)

IKK-epsilon = target: T10, IKK-epsilon (Homo sapiens, UniProt Q14164)
T10 construct: DNA label (qPCR read-out); purchased KINOMEscan (DiscoveRx) ScanMAX panel

IRAK3 = target: T11, IRAK3 (Homo sapiens, UniProt Q9Y616)
T11 construct: DNA label (qPCR read-out); purchased KINOMEscan (DiscoveRx) ScanMAX panel

ITK = target: T12, ITK (Homo sapiens, UniProt Q08881)
T12 construct: DNA label (qPCR read-out); purchased KINOMEscan (DiscoveRx) ScanMAX panel

KIT(V559D) = target: T13, KIT(V559D) (Homo sapiens, UniProt P10721, V559D)
T13 construct: DNA label (for qPCR read-out); purchased DiscoveRx (KINOMEscan scanMAX panel)

LIMK2 = target: T14, LIMK2 (Homo sapiens, UniProt P53671)
T14 construct: purchased KINOMEscan (DiscoveRx) panel service

MAST1 = target: T15, MAST1 (Homo sapiens, UniProt Q9Y2H9)
T15 construct: purchased DiscoveRx (KINOMEscan scanMAX panel, service)

MST3 = target: T16, MST3 (Homo sapiens, UniProt Q9Y6E0)
T16 construct: DNA label (for qPCR read-out); purchased KINOMEscan scanMAX panel (DiscoveRx)

MYLK2 = target: T17, MYLK2 (Homo sapiens, UniProt Q9H1R3)
T17 construct: DNA label (for qPCR read-out); purchased KINOMEscan scanMAX panel (DiscoveRx)

MYO3A = target: T18, MYO3A (Homo sapiens, UniProt Q8NEV4)
T18 construct: DNA label (for qPCR read-out); purchased KINOMEscan scanMAX panel (DiscoveRx)

NEK1 = target: T19, NEK1 (Homo sapiens, UniProt Q96PY6)
T19 construct: DNA label (for qPCR read-out); purchased KINOMEscan scanMAX panel (DiscoveRx)

NEK9 = target: T20, NEK9 (Homo sapiens, UniProt Q8TD19)
T20 construct: DNA label (qPCR read-out); purchased KINOMEscan (ScanMAX panel service)

PIK3CA(E545A) = target: T21, PIK3CA(E545A) (Homo sapiens, UniProt P42336, E545A)
T21 construct: DNA label; purchased DiscoveRx (KINOMEscan scanMAX panel)

PKAC-alpha = target: T22, PKAC-alpha (Homo sapiens, UniProt P17612)
T22 construct: DNA label (qPCR read-out); purchased KINOMEscan (DiscoveRx) panel

PLK2 = target: T23, PLK2 (Homo sapiens, UniProt Q9NYY3)
T23 construct: purchased DiscoveRx (KINOMEscan scanMAX panel)

RET(M918T) = target: T24, RET(M918T) (Homo sapiens, UniProt P07949, M918T)
T24 construct: purchased DiscoveRx (KINOMEscan scanMAX panel)

RIPK1 = target: T25, RIPK1 (Homo sapiens, UniProt Q13546)
T25 construct: DNA label (qPCR read-out); purchased DiscoveRx (KINOMEscan ScanMAX panel)

ROCK1 = target: T26, ROCK1 (Homo sapiens, UniProt Q13464)
T26 construct: DNA label (qPCR read-out); purchased DiscoveRx (KINOMEscan ScanMAX panel)

ROCK2 = target: T27, ROCK2 (Homo sapiens, UniProt O75116)
T27 construct: DNA label (qPCR read-out); purchased DiscoveRx (KINOMEscan ScanMAX panel)

TAK1 = target: T28, TAK1 (Homo sapiens, UniProt O43318)
T28 construct: DNA label (for qPCR read-out); purchased DiscoveRx (KINOMEscan scanMAX panel, contract assay)

TNNI3K = target: T29, TNNI3K (Homo sapiens, UniProt Q59H18)
T29 construct: DNA label (qPCR read-out); purchased KINOMEscan (DiscoveRx) ScanMAX panel

[5] = target: T30, TYK2(JH2domain-pseudokinase) (Homo sapiens, UniProt P29597)
T30 construct: JH2domain; DNA label (for qPCR read-out); purchased DiscoveRx (KINOMEscan scanMAX panel)

VRK2 = target: T31, VRK2 (Homo sapiens, UniProt Q86Y07)
T31 construct: purchased KINOMEscan (DiscoveRx) panel service

ZAP70 = ZAP70 (Homo sapiens, UniProt P43403)

T8 sequence (P29320 21-983): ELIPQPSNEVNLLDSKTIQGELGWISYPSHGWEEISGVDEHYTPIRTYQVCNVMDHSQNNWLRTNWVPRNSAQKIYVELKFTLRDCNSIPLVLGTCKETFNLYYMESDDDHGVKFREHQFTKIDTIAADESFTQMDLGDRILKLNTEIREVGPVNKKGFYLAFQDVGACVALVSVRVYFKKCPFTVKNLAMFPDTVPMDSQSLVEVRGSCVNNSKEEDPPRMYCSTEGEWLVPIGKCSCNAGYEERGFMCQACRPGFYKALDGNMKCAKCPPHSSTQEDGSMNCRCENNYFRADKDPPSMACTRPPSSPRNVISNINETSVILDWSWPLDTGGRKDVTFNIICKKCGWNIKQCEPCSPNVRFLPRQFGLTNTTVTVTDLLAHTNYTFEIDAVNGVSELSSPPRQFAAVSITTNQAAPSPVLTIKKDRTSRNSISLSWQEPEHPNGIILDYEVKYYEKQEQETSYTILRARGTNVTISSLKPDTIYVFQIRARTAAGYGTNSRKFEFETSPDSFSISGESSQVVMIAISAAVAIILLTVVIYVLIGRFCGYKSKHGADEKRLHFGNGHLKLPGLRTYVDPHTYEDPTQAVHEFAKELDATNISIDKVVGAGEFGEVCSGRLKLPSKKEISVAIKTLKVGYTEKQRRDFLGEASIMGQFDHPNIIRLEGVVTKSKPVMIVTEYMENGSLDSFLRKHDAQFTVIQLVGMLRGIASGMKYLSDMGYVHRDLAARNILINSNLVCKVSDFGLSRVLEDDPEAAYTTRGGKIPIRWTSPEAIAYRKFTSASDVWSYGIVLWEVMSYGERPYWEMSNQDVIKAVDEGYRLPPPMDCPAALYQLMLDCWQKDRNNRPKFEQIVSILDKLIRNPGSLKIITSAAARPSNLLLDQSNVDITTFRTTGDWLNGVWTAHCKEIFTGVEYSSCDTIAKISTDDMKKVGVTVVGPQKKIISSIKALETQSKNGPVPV
T31 sequence (Q86Y07 whole entry): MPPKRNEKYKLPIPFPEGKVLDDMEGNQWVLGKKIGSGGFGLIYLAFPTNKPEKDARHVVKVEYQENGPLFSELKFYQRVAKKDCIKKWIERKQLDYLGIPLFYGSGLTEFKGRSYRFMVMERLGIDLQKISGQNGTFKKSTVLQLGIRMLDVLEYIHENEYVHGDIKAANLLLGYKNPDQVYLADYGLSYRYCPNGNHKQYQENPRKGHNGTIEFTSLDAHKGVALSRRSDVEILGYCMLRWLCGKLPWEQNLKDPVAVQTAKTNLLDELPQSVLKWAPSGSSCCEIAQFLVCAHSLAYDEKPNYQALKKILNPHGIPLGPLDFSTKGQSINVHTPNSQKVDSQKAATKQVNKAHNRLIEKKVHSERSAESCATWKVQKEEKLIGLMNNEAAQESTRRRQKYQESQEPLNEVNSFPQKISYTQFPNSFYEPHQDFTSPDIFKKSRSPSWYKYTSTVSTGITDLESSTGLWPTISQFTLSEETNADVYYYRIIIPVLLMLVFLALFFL
T3 sequence (P21127 whole entry): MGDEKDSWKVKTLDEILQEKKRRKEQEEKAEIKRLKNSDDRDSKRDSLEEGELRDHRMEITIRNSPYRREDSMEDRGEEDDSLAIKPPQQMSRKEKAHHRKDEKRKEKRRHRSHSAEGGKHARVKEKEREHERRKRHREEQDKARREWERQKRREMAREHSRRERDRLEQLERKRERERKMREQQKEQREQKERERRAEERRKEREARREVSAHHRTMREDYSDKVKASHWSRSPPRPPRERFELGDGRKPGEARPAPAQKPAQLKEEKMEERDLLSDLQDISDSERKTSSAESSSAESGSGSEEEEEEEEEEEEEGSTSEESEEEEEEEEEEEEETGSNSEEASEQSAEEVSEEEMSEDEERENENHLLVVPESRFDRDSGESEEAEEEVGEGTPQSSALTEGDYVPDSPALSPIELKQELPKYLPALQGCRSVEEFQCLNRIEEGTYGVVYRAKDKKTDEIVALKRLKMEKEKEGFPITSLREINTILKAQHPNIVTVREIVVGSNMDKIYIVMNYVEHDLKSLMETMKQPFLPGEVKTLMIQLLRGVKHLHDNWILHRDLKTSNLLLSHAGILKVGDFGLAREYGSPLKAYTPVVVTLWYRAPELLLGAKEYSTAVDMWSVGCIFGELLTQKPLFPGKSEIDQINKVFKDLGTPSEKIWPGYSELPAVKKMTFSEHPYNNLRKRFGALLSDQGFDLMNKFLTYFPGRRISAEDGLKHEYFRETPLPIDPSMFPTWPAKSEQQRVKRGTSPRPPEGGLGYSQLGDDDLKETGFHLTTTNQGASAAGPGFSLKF
T14 sequence (P53671 whole entry): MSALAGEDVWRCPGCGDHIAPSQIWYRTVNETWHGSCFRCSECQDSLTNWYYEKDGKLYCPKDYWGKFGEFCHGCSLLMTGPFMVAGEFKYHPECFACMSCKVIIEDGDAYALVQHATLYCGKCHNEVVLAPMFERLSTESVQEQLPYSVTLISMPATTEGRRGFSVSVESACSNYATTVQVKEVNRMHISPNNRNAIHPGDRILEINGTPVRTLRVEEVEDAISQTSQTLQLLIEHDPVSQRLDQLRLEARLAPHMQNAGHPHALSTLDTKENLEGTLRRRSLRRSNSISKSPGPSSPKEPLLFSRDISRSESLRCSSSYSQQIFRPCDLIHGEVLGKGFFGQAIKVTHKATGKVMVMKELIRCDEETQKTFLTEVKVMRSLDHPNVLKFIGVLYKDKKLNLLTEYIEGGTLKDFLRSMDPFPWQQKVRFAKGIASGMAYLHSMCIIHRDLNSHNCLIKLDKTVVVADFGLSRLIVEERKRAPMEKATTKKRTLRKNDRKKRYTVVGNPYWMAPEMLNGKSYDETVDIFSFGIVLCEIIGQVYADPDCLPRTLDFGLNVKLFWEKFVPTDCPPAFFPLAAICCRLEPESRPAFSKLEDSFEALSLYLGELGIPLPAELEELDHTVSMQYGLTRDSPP
T18 sequence (Q8NEV4 whole entry): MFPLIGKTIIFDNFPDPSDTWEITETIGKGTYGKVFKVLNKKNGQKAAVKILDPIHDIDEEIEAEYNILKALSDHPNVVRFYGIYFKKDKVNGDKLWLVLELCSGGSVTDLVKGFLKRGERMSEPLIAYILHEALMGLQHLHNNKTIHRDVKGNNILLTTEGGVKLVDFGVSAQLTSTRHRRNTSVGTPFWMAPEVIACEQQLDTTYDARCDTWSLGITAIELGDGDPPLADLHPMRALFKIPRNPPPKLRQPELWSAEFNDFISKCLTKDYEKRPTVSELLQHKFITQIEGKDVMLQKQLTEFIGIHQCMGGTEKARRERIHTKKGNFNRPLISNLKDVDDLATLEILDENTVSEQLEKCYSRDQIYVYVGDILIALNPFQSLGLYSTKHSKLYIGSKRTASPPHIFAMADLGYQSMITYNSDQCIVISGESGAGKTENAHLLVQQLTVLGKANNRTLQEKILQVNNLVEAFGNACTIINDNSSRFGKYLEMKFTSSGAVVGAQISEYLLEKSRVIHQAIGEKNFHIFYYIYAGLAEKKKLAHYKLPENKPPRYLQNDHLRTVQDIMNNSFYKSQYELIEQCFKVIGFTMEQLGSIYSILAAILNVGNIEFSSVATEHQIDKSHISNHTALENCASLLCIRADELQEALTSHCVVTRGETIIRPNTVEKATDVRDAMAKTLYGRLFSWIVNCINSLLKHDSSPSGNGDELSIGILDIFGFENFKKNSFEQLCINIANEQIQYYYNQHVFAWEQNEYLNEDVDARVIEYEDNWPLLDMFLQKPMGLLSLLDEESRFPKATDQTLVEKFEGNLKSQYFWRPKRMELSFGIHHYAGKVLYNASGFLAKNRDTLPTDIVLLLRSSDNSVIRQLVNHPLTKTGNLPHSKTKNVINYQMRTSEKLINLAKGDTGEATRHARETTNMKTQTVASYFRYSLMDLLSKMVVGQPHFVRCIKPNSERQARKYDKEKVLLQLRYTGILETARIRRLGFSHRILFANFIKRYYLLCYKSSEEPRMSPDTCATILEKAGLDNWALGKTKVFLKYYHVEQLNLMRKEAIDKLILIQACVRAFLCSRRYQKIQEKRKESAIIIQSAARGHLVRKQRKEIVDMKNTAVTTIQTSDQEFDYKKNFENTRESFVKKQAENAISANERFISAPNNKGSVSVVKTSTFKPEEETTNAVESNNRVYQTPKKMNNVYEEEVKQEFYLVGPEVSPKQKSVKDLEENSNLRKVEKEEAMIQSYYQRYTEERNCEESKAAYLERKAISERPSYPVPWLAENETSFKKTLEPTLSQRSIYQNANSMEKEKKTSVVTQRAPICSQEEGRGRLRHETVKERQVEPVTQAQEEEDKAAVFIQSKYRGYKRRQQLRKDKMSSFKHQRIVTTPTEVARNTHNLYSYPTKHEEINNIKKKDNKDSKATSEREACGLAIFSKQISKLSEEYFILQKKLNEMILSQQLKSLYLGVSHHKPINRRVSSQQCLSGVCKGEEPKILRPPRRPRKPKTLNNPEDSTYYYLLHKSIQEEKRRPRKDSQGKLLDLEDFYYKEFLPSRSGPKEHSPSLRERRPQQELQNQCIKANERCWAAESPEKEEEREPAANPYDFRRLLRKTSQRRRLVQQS
T16 sequence (Q9Y6E0 whole entry): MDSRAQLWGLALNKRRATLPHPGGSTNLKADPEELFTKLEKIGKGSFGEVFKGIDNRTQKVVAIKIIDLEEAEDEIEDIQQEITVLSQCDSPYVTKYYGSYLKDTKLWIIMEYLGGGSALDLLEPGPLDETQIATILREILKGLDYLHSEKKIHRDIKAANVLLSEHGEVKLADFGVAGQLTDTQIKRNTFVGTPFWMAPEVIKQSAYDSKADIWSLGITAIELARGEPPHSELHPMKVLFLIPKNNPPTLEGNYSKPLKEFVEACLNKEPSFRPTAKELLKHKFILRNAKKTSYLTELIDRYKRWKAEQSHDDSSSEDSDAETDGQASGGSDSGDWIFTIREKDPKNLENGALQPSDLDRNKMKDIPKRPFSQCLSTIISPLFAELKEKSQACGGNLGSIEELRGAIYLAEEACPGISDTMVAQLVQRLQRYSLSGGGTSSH

SMILES | % Ctrl [1] | % Ctrl [2] | % Ctrl [3] | % Ctrl (BMPR1B) | % Ctrl (BTK) | % Ctrl (CDC2L1) | % Ctrl (CDK11 (CDK19)) | % Ctrl (DDR2) | % Ctrl (DMPK2) | % Ctrl [4] | % Ctrl (EPHA3) | % Ctrl (GRK4) | % Ctrl (IKK-epsilon) | % Ctrl (IRAK3) | % Ctrl (ITK) | % Ctrl (KIT(V559D)) | % Ctrl (LIMK2) | % Ctrl (MAST1) | % Ctrl (MST3) | % Ctrl (MYLK2) | further results
[2H]C([2H])([2H])N(C(=O)c1ccc(N2CCCN(c3ccnc4sc(C(N)=O)c(N)c34)CC2)cc1)C([2H])([2H])[2H] [15u_D6, 3-amino-4-(4-(4-(bis(methyl-d3)carbamoyl)phenyl)-1,4-diazepan-1-yl)thieno[2,3-b]pyridine-2-carboxamide] | 100 % Ctrl | 76 % Ctrl | 81 % Ctrl | 62 % Ctrl | 77 % Ctrl | 100 % Ctrl | 0 % Ctrl | 52 % Ctrl | 94 % Ctrl | 100 % Ctrl | 87 % Ctrl | 98 % Ctrl | 100 % Ctrl | 89 % Ctrl | 87 % Ctrl | 91 % Ctrl | 98 % Ctrl | 92 % Ctrl | 84 % Ctrl | 100 % Ctrl | % Ctrl (MYO3A): 100 % Ctrl; % Ctrl (NEK1): 96 % Ctrl; % Ctrl (NEK9): 89 % Ctrl; % Ctrl (PIK3CA(E545A)): 92 % Ctrl; % Ctrl (PKAC-alpha): 100 % Ctrl; % Ctrl (PLK2): 86 % Ctrl; % Ctrl (RET(M918T)): 98 % Ctrl; % Ctrl (RIPK1): 100 % Ctrl; % Ctrl (ROCK1): 67 % Ctrl; % Ctrl (ROCK2): 80 % Ctrl; % Ctrl (TAK1): 62 % Ctrl; % Ctrl (TNNI3K): 100 % Ctrl; % Ctrl [5]: 59 % Ctrl; % Ctrl (VRK2): 56 % Ctrl; % Ctrl (ZAP70): 87 % Ctrl
CN(C)C(=O)c1ccc(N2CCCN(c3ccnc4sc(C(N)=O)c(N)c34)CC2)cc1 [15u, 3-amino-4-(4-(4-(dimethylcarbamoyl)phenyl)-1,4-diazepan-1-yl)thieno[2,3-b]pyridine-2-carboxamide] | 99 % Ctrl | 100 % Ctrl | 100 % Ctrl | 100 % Ctrl | 81 % Ctrl | 63 % Ctrl | 13 % Ctrl | 80 % Ctrl | 93 % Ctrl | 99 % Ctrl | 100 % Ctrl | 62 % Ctrl | 100 % Ctrl | 93 % Ctrl | 88 % Ctrl | 98 % Ctrl | 91 % Ctrl | 92 % Ctrl | 97 % Ctrl | 100 % Ctrl | % Ctrl (MYO3A): 100 % Ctrl; % Ctrl (NEK1): 80 % Ctrl; % Ctrl (NEK9): 100 % Ctrl; % Ctrl (PIK3CA(E545A)): 100 % Ctrl; % Ctrl (PKAC-alpha): 95 % Ctrl; % Ctrl (PLK2): 100 % Ctrl; % Ctrl (RET(M918T)): 98 % Ctrl; % Ctrl (RIPK1): 99 % Ctrl; % Ctrl (ROCK1): 77 % Ctrl; % Ctrl (ROCK2): 100 % Ctrl; % Ctrl (TAK1): 93 % Ctrl; % Ctrl (TNNI3K): 100 % Ctrl; % Ctrl [5]: 73 % Ctrl; % Ctrl (VRK2): 84 % Ctrl; % Ctrl (ZAP70): 95 % Ctrl
